From ChEMBL document CHEMBL4346743, “Design and synthesis of biotinylated Hexylselen as a probe to identify KGA allosteric inhibitors by a convenient biomolecular interaction assay” (Bioorg Med Chem Lett, 2019)
Active and inactive are the calls of the source. The rule behind the calls is not given here.

Legend:
[1] = biological target: T1, Glutaminase kidney isoform, mitochondrial (Homo sapiens) (UniProt O94925); test: Competitive binding affinity to human KGA in presence of BPTES by biolayer interferometry
T1 sequence (whole entry): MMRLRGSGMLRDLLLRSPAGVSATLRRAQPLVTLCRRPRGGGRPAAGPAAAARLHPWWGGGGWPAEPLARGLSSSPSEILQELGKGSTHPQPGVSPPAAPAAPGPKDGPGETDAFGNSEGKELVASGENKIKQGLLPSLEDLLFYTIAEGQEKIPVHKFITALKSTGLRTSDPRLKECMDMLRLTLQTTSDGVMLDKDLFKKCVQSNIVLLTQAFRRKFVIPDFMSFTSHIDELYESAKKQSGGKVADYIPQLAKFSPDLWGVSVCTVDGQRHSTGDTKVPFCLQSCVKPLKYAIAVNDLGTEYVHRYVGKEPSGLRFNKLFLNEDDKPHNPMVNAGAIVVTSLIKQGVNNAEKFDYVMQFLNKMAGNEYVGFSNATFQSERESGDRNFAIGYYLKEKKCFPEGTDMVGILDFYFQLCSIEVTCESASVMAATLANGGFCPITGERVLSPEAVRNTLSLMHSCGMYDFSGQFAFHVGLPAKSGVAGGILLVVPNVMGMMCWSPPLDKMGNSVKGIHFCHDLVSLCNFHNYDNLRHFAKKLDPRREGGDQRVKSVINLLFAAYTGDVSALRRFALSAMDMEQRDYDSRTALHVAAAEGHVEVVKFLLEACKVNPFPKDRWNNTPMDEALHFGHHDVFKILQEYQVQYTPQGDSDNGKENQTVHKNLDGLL

[2] = biological target: T1, Glutaminase kidney isoform, mitochondrial (Homo sapiens); test: Binding affinity to human KGA assessed as dissociation rate constant at 33 uM
[3] = biological target: T1, Glutaminase kidney isoform, mitochondrial (Homo sapiens); test: Binding affinity to human KGA assessed as association rate constant at 33 uM
[4] = biological target: T2, Glutaminase kidney isoform, mitochondrial (Homo sapiens, UniProt O94925); test: Allosteric inhibition of human KGA assessed as reduction in glutamate formation using glutamine as substrate pretreated with enzyme for 15 mins followed by substrate addition and measured after 3 hrs by KGA/GDH coupled assay
T2 sequence (O94925 whole entry): T1 sequence (whole entry)

[5] = biological target: T1, Glutaminase kidney isoform, mitochondrial (Homo sapiens); test: Competitive binding affinity to human KGA after 1 hr in presence of ebselen by biolayer interferometry
[6] = biological target: T2, Glutaminase kidney isoform, mitochondrial; test: Binding affinity to human KGA assessed as dissociation constant

Activity [1]: Active
Kdiss [2]: 2 ×10⁻³ /s
Ka [3]: 1.4 ×10⁴ /Ms
IC50 [4]: 73 nM
Activity [5]: inactive
Kd [6]: 142 nM
Structure (SMILES): COc1ccc2[se]n(CCCCCCn3[se]c4ccc(OCCCCC[C@@H]5SC[C@@H]6NC(=O)N[C@@H]65)cc4c3=O)c(=O)c2c1
